Literature values as cited in patent publication US20090117076A1, “Methods For Treating Tumor Cells” (priority 2007, published 2009).
Where a name gives a salt, the structure may show the parent alone. Read-outs that look alike come from different tables or passages of the source.

Columns and labels:
[1] = primates
GIST = conditions: for Median time to progression, historical value: single agent imatinib

Compound | Abortifacient effect [1] | Overall response rate of tumor necrosis/apoptosis (GIST; human, in vivo) [%] | Median time to progression, historical value (GIST; subgroup with KIT exon 11 mutation) [days] | Median time to progression, historical value (GIST; subgroup without KIT exon 11 mutation) [days]
interferon α-2b | abortifacient | – | – | –
Cc1ccc(NC(=O)c2ccc(CN3CCN(C)CC3)cc2)cc1Nc1nccc(-c2cccnc2)n1 [imatinib, imatinib mesylate] | – | 69 | 687 | 200
